The source of these data is ChEMBL document CHEMBL1122468, “Synthesis of (7R)-7H-indolo[3,4-gh][1,4]benzoxazines, a new class of D-heteroergolines with dopamine agonist activity” (J Med Chem, 1983).

One experiment has as its system Rattus norvegicus. In words: In vivo measure of dopaminergic activity by the induction of contralateral turning behavior in 6-hydroxydopamine (6-OHDA) lesioned rats, ip. Format: functional.
A further experiment addresses Dopamine receptor. Kind of experiment: In vitro affinity for dopamine receptor by displacement of [3H]- apomorphine in rat striatal membranes. Format: cell membranes, Membrane. In general terms: Loss of bound radioactivity is the signal in a displacement assay; it reports binding, not function.
Experiment [1] concerns the target T1, Cerebral cortex alpha adrenergic receptor (Bos taurus, UniProt Q28838+P18130).
T1 sequence (Q28838 whole entry): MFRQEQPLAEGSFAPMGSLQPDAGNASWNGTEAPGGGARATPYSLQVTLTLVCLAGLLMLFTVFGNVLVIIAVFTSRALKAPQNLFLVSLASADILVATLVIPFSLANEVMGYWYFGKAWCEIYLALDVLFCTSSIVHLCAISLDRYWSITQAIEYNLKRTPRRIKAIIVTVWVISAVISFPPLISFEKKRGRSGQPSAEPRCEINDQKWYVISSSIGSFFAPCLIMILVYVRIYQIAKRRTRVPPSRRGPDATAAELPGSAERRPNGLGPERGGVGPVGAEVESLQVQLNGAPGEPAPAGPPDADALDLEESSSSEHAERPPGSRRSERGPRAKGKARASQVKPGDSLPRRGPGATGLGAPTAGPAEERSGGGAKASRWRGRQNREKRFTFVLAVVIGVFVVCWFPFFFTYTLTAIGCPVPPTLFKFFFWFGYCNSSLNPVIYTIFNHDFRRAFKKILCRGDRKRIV
T1 sequence (P18130 whole entry): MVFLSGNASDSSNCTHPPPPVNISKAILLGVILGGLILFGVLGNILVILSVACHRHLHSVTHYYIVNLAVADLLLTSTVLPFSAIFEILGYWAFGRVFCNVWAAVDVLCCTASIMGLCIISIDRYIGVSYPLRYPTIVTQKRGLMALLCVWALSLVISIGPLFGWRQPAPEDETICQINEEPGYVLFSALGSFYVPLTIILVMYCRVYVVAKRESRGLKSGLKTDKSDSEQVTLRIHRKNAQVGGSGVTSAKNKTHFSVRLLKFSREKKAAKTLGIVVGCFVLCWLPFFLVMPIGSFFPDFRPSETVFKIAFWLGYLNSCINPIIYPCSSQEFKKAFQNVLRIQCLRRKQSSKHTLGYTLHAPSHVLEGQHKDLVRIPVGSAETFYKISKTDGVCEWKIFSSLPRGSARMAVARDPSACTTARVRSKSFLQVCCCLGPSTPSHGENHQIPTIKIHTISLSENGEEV
Kind of experiment: In vitro affinity for alpha adrenergic receptor by displacement of 3[H]clonidine in calf cerebral cortex. Format: tissue-based.

Setting [2] is: Rattus norvegicus, ip, read-out: ED50.

Consider `CCN1CCO[C@@H]2c3cccc4[nH]cc(c34)C[C@H]21` (stereo in doubt; 6b), for which the ED50 (commonly the dose at which the effect has come halfway, by size or by number of responders) with Rattus norvegicus turned out to be 0.09 mg/kg. The IC50 (commonly the point on the concentration scale where inhibition reaches its midpoint) at Dopamine receptor is reported as 4.65 nM; in experiment [1] it was 15 nM.
Regarding `CCCN1CCO[C@@H]2c3cccc4[nH]cc(c34)C[C@H]21`, in the experiment with Rattus norvegicus (setting [2]), the 50% effective dose (ED50) was 0.028 mg/kg. For the same molecule, the IC50 at Dopamine receptor turned out to be 2.2 nM; in experiment [1], 31 nM.
In the same order, the values of `CN1CCO[C@@H]2c3cccc4[nH]cc(c34)C[C@H]21` are 0.18 mg/kg, 28.9 nM and 27 nM.
With `CCN1CCO[C@@H]2c3cccc4[nH]cc(c34)C[C@H]21` (stereo in doubt; (+)6b), the ED50 with Rattus norvegicus was found to be 7.5 mg/kg. The concentration for half-maximal inhibition (IC50) is 219 nM at Dopamine receptor and 34 nM in experiment [1].
As for `CCCCN1CCO[C@@H]2c3cccc4[nH]cc(c34)C[C@H]21`, in the experiment with Rattus norvegicus (setting [2]), the ED50 is 1.1 mg/kg. The IC50 on Dopamine receptor is 33 nM; in experiment [1] it was 46 nM.
On the same counts, the results for `c1cc2c3c(c[nH]c3c1)C[C@H]1NCCO[C@H]21` are 0.76 mg/kg, 59.6 nM and 55 nM.
On the same counts, the results for `C=CCN1CCO[C@@H]2c3cccc4[nH]cc(c34)C[C@H]21` are 0.15 mg/kg, 23 nM and 206 nM.
`CCN1CCO[C@@H]2c3cccc4[nH]cc(c34)C[C@H]21` (stereo in doubt; (-)6b): the ED50 in the experiment with Rattus norvegicus is 0.027 mg/kg. Moreover, the IC50 at Dopamine receptor turned out to be 2 nM; in experiment [1] it was 7 nM.
Regarding `CCCN1C[C@H](CSC)C[C@@H]2c3cccc4[nH]cc(c34)C[C@H]21` [PERGOLIDE], in the experiment on Rattus norvegicus (setting [2]), the ED50 turned out to be 0.1 mg/kg.
For the molecule `CCN1CCO[C@@H]2c3cccc4[nH]cc(c34)C[C@H]21` (relative stereo), the ED50 in the experiment on Rattus norvegicus was >5 mg/kg. The IC50 was determined as 1240 nM on Dopamine receptor and 1354 nM in experiment [1].
For `CC(C)C[C@H]1C(=O)N2CCC[C@H]2[C@]2(O)O[C@](NC(=O)[C@@H]3C=C4c5cccc6[nH]c(Br)c(c56)C[C@H]4N(C)C3)(C(C)C)C(=O)N12` [BROMOCRIPTINE], in the experiment on Rattus norvegicus (setting [2]), the ED50 amounted to 2.8 mg/kg.
